The values below come from patent EP2792360A1, “(1aR,12bS)-8-cyclohexyl-11-fluoro-N-((1-methylcyclopropyl)sulfonyl)-1a-((3-methyl-3,8-diazabicyclo[3.2.1]oct-8-yl)carbonyl)-1,1a,2,2b-tetrahydrocyclopropa[d]indolo[2,1-a][2]benzazepine-5-carboxamide for use in treating HCV” (IP Gesellschaft für Management mbH, priority 2013, dated 2014).

The nature of data set [1]: Solid form stability of forms of compound of formula (IV) (Temperature / Humidity Controlled XRPD, storage, suspension). The format is physicochemical. Here is the method: The term"XRPD" denotes the analytical method of X-Ray Powder Diffraction. XRPD patterns were recorded at ambient conditions in transmission geometry with a STOE STADI P diffractometer (Cu K alpha radiation source, primary monochromator, position sensitive detector, angular range 3° to 42° 2Theta, approximately 60 minutes total measurement time). The repeatability of the angular values is in the range of 2Theta ±0.2°. The term "approximately" given in combination with an angular value denotes the repeatability which is in the range of 2Theta ±0.2°. The samples were prepared and analyzed without further processing (e.g. grinding or sieving) of the substance. The relative XRPD peak intensity is dependent upon many factors such as structure factor, temperature factor, crystallinity, polarization factor, multiplicity, and Lorentz factor. Relative intensities may vary considerably from one measurement to another due to preferred orientation effects. Humidity Controlled XRPD analyses were performed in reflection geometry with a Siemens D5000 Diffractometer (Cu radiation source, Ni K beta filter, Scintillation detector, angular range 3° to 42° 2Theta, approximately 180 minutes total measurement time per humidity level). The diffractometer is equipped with an MRI (Materials Research Instruments) humidity chamber. The humidity within the chamber is adjusted with an ANSYCO humidity controller (SYCOS H-HOT). For single crystal structure analysis a single crystal sample was mounted in a nylon loop on a goniometer and measured at ambient conditions. Alternatively, the crystal was cooled in a nitrogen stream during measurement. Data were collected on a GEMINI R Ultra diffractometer from Oxford Diffraction. Cu-radiation of 1.54 A wavelength was used for data collection. Data was processed with the Oxford Diffraction CRYSALIS software. The crystal structure was solved and refined with standard crystallographic software. In this case the program ShelXTL from Bruker AXS (Karlsruhe) was used. The abbreviation "FWHM" denotes the full width at half maximum, which is a width of a peak (e.g. appearing in a spectrum, particularly in an XRPD pattern) at its half height. The term "sharp Bragg diffraction peak" in connection with X-ray diffraction patterns denotes a peak which is observed if Bragg' s law of diffraction is fulfilled. Generally, the FWHM of a sharp Bragg diffraction peak is less than 0.5° 2-theta. The term "amorphous halo" in connection with X-ray diffraction patterns denotes an approximately bell- shaped diffraction maximum in the X-ray powder diffraction pattern of an amorphous material. The FWHM of an amorphous halo is on principle larger than the FWHM of the peak of crystalline material. The terms "FTIR" and "IR" denote the analytical method of infrared spectroscopy. The IR-spectra of the samples are recorded as film of a Nujol suspension consisting of approx. 5 mg of sample and approx. 5 mg of Nujol (mineral oil) between two sodium chloride plates (cross section 13 mm) in transmittance with a FTIR- spectrometer. The spectra were recorded in spectral range between 4000 cm"1 and 600 cm"1, resolution 2 cm"1, and 300 coadded scans on a Magna 860 (thermo/Nicolet) equipped with a DTGS detector. The term "Raman" denotes the analytical method of Raman spectroscopy. For recording Raman spectra, the samples were spread on a glass slide. Raman spectra were recorded in the range of 150-3800 cm"1 with an ARAMIS (HoribaJobinYvon) Raman microscope equipped with a Peltier cooled CCD detector, at excitation of 633 nm, a 1200 1/mm grating, a x50 objective and with 3 exposures of 3s, or 7s for weak Raman scatterers. The term "DSC" denotes the analytical method of Differential Scanning Calorimetry. DSC thermograms were recorded using a Mettler-Toledo™ differential scanning calorimeter DSC820, DSC821 or DSC1 with a FRS05 sensor. […]

Data set [2] in a line: in vitro dissolution of micronized powders in SGF and FeSSIF (miniaturized, non-sink). The format is physicochemical. On the procedure: Example 28: in vitro Dissolution Results: The in vitro dissolution studies performed in this work were conducted in a miniaturized system with 100 mL dissolution medium per experiment. […] Simulated gastric fluid (SGF) was prepared with 2 g/L NaCl and 1 g/L Triton® X-100 in 0.1 N HCl. The resulting measured pH of SGF was 1.2. Simulated fed state intestinal fluid (FeSSIF) was prepared as previously reported in […]. et al. (Pharm. Res. […] Oral absorption of a drug compound from a solid dosage form is dependent on dissolution rate and solubility. […] Figure 21 of WO/2013/057124presents the dissolution profiles measured in simulated gastric fluid (SGF) and Figure 22 of WO/2013/057124shows the dissolution profiles in simulated fed state intestinal fluid (FeSSIF). […] Changes of pH values in the dissolution test samples taken at different time points were not observed. The ranking of the different solid forms with respect to dissolution speed and maximum drug concentration achieved was identical in both media. The differences in the dissolution profiles in SGF and FeSSIF can be explained by the different composition of the two media since the dissolution generally depends on a variety of factors such as pH, surfactant, buffer capacity, ionic strength, etc. […]

Data set [3] can be described thus: Hygroscopicity of solid forms of compound of formula (IV) (Ph. Eur. classification). The format is physicochemical. Here is the method: For the thermogravimetric analyses, approx. 5 - 10 mg of sample were placed in aluminum pans, accurately weighed and hermetically closed with perforation lids. […] The samples were then heated under a flow of nitrogen of about 50 mL/min using a heating rate of 5 K/min. The term "micronization" denotes a process whereby the particle size of a solid material is diminished to a d50 value of less than IOµm by the aid of a suitable method, such as milling, bashing or grinding. […] The term "anti-solvent crystallization" denotes a process wherein supers aturation and as a result thereof crystallisation is achieved by addition of an antisolvent to the product solution. The term "ambient conditions" denotes conditions as experienced in a standard laboratory, e.g. atmospheric pressure, air, ambient temperature between 18 °C and 28 °C, humidity between 30 %rH and 80 %rH. The term "hygroscopicity" describes the ability of a solid material to adsorb moisture. The hygroscopicity of a given API is characterized [European Pharmacopoeia - 6th Edition (2008), Chapter 5.11) by the increase in mass when the relative humidity is raised from 0 %rH to 90 %rH: o non-hygroscopic: weight increase Am < 0.2%; o slightly hygroscopic: weight increase 0.2% < Am < 2.0%; o hygroscopic: weight increase 2.0% < Am < 15.0%; o very hygroscopic: weight increase Am > 15.0%; o deliquescent: sufficient water is adsorbed to form a liquid. The IUPAC lamda convention (W.H. Powell, Pure & Appl. Chem. […] The bonding number "n" of a heteroatom is the sum of the total number of valence bonds to adjacent atoms, if any, and the number of attached hydrogen atoms. The bonding number of a heteroatom is standard when it has the value given in the following table: n=4: C, Si, Ge, Sn, Pb; n=3 B, N, P, As, Sb, Bi, n=2: O, S, Se, Te, Po; n=l; F, CI, Br, I, At. A nonstandard bonding number of a (neutral) heteroatom is indicated by the symbol "λη", where "n" is the bonding number. […]

The nature of data set [4]: physchem. On the procedure:
Anal. Chem. Instrum. […] Drug Delivery Rev. […] The binding constant (K) of the gamma-CD inclusion complex ({drug4g}) was calculated from the initial straight line portion of the phase solubility diagram by linear regression, according to the following equation [T. Higuchi et al., Adv. Anal. Chem. Instrum.

Molecules are shown by their SMILES.

`Cc1onc(-c2ccc(F)cc2)c1COc1ccc(C(=O)N2CCS(=O)(=O)CC2)cn1` [Form C ({drug4c}), (1,1-dioxo-1lambda6-thiomorpholin-4-yl)-{6-[3-(4-fluoro-phenyl)-5-methyl-isoxazol-4-ylmethoxy]-pyridin-3-yl]-methanone]: in data set [1], the “behaviour in the presence of water in suspended state” value is recorded as “transforms into Form B” and the “thermodynamic stability of the solid form” value is “most stable polymorph overall”. For the same compound, the “phase change upon storage at 100 rH at ambient temperature” value in data set [1] (Form C: prolonged period, e.g. 30 days) was “does not induce this phase change”. Moreover, the “solid form changes at elevated temperature” value in data set [1] (Temperature Controlled XRPD) is reported as “do not show solid form changes”. Besides, the “solubility in simulated gastric fluid (SGF)” value in data set [2] is on record as “considerably improved as compared to Form B”. Besides, in data set [3], the “hygroscopicity relative to Form A” value is reported as “less hygroscopic than Form A”.

For `Cc1onc(-c2ccc(F)cc2)c1COc1ccc(C(=O)N2CCS(=O)(=O)CC2)cn1` [gamma-CD inclusion complex ({drug4g}), (1,1-dioxo-1lambda6-thiomorpholin-4-yl)-{6-[3-(4-fluoro-phenyl)-5-methyl-isoxazol-4-ylmethoxy]-pyridin-3-yl]-methanone], the “binding constant (K)” value in data set [4] was determined as 510.4 M⁻¹. In addition, in data set [2] (SGF and FeSSIF, room temperature, dropped in the first 60 min to a level comparable to polymorph C), the “initial concentration achieved in dissolution” value is on record as “much higher initial concentration”.
